Values quoted from earlier work as cited in patent US4833152A, “Anti-hypertensive agents” (University of Miami, priority 1987, dated 1989).

Tests used:
[1] = 1 mg per ml, pH about 8, as little as 30 minutes, ambient conditions

C[C@H](CS)C(=O)N1CCCC1C(=O)O (stereo in doubt) [SQ14225, D-3-mercapto-2-methylpropanoyl-L-proline]
loss of activity of fresh aqueous solution on standing [1]: substantially less active upon standing for as little as 30 minutes | ACE inhibition, in words (ACE; U.S. Pat. No. 4,046,889, Cushman 1977, Ondetti 1977): highly effective inhibitor

CC(=O)SC[C@@H](C)C(=O)N1CCC[C@H]1C(=O)O [S-acetyl derivative]
potency of the inhibitor on substitution of the sulfhydryl (ACE; relative to free sulfhydryl SQ14225, Cushman et al., Biochemistry): substantially reduced potency of the inhibitor

C[C@H](CSSC[C@@H](C)C(=O)N1CCC[C@H]1C(=O)O)C(=O)N1CCC[C@H]1C(=O)O [disulfide]
inhibitory activity of the disulfide (ACE; disulfide formed by dimerization of SQ14225, believed): largely inactive as an inhibitor
